Laboratory results as given in US6716881B2, “Carbanilides used as pesticides” (Bayer Aktiengesellschaft, priority 1996, dated 2004).

Experiments:
Coniophora puteana = test: Inhibitory test with giant colonies of Basidiomycetes (Coniophora puteana); type: cell-based; details: after 3 or 7 days at 26° C., vs untreated control; for Inhibition of the growth of the hypha in % with Coniophora puteana at an active compound concentration of 1 ppm: 1 ppm in agar; for Inhibition of the growth of the hypha in % with Coniophora puteana at an active compound concentration of 3 ppm: 3 ppm in agar; for Inhibition of the growth of the hypha in % with Coniophora puteana at an active compound concentration of 6 ppm: 6 ppm in agar
Method: (§1) Inhibitory Test with Giant Colonies of Basidiomycetes.
(§2) To produce a suitable preparation of active compound, 0.2 parts by weight of active compound are admixed with 99.8 parts by weight of the abovementioned solvent.
(§3) An agar which has been prepared using malt extract peptone is mixed in the liquid state with the preparation of active compound at the particular desired application rate. After the agar has set, the resulting nutrient medium is incubated at 26° C. with pieces of mycelium which had been punched out of colonies of Coniophora puteana or Coriolus versicolor.
(§4) Evaluation is carried out after 3 or 7 days' storage at 26° C. by measuring the growth of the hypha and scoring the resulting inhibition in percent in comparison to the untreated control. 0% means an inhibition of growth which corresponds to that of the untreated control, while an inhibition of growth of 100% means that no growth of the hypha is observed.

Coriolus versicolor = test: Inhibitory test with giant colonies of Basidiomycetes (Coriolus versicolor); type: cell-based; details: after 3 or 7 days at 26° C., vs untreated control; for Inhibition of the growth of the hypha in % with Coriolus versicolor at an active compound concentration of 1 ppm: 1 ppm in agar; for Inhibition of the growth of the hypha in % with Coriolus versicolor at an active compound concentration of 3 ppm: 3 ppm in agar; for Inhibition of the growth of the hypha in % with Coriolus versicolor at an active compound concentration of 6 ppm: 6 ppm in agar
Method: as §1, §2, §3, §4

Venturia inaequalis = test: Venturia test (apple)/protective (Example B, spray liquor concentration); type: in vivo; details: protective, 100 ppm in spray liquor, evaluation 12 days after inoculation
Method: Venturia Test (Apple)/Protective
To produce a suitable preparation of active compound, 1 part by weight of active compound is mixed with the stated amounts of solvent and emulsifier, and the concentrate is diluted with water to the desired concentration.
To test for protective activity, young plants are sprayed with the preparation of active compound until dew-moist. After the spray-coating has dried on, the plants are inoculated with an aqueous conidia suspension of the causative organism of apple scab Venturia inaequalis and then remain in an incubation cabin at 20° C. and 100% relative atmospheric humidity for 1 day.
The plants are then placed in a greenhouse at 23° C. and a relative atmospheric humidity of approximately 70%.
Evaluation is carried out 12 days after the inoculation. 0% means an efficacy which corresponds to that of the untreated control, while an efficacy of 100% means that no infection is observed.

Row | SMILES | Inhibition of the growth of the hypha in % with Coniophora puteana at an active compound concentration of 1 ppm (Coniophora puteana) [%] | Inhibition of the growth of the hypha in % with Coniophora puteana at an active compound concentration of 3 ppm (Coniophora puteana) [%] | Inhibition of the growth of the hypha in % with Coniophora puteana at an active compound concentration of 6 ppm (Coniophora puteana) [%] | Inhibition of the growth of the hypha in % with Coriolus versicolor at an active compound concentration of 1 ppm (Coriolus versicolor) [%] | Inhibition of the growth of the hypha in % with Coriolus versicolor at an active compound concentration of 3 ppm (Coriolus versicolor) [%] | Inhibition of the growth of the hypha in % with Coriolus versicolor at an active compound concentration of 6 ppm (Coriolus versicolor) [%] | Efficacy in % at an active compound concentration in the spray liquor of 100 ppm (Venturia inaequalis) [%]
1 | Cc1nc(C(F)(F)F)c(C(=O)Nc2ccccc2CSc2ccc(Cl)cc2)s1 [Example 85] | 70 | 80 | 80 | 70 | 70 | 90 | 
2 | Cc1ccc(SCc2ccccc2NC(=O)c2c(C)nn(C)c2Cl)cc1 [Example 45] | 70 | 80 | 90 | 90 | 100 | 100 | 
3 | Cn1cc(C(=O)Nc2ccccc2C=Cc2ccccc2)c(C(F)(F)F)n1 [drawing 523] |  |  |  |  |  |  | 97
4 | Cc1nn(C)cc1C(=O)Nc1ccccc1CSc1ccc(Cl)cc1 [Example 81] | 70 | 90 | 100 | 90 | 90 | 100 | 
5 | CC1=C(C(=O)Nc2ccccc2COc2ccccc2)SCCO1 [Example 141] | 80 | 100 | 100 | 90 | 100 | 100 | 
6 | Cn1cc(C(=O)Nc2ccccc2COc2ccccc2)c(C(F)F)n1 [Example 123] | 100 | 100 | 100 | 100 | 100 | 100 | 
7 | CC1=C(C(=O)Nc2ccccc2OCc2ccc(C)cc2C)SCCO1 [Example 78] | 70 | 80 | 90 | 90 | 90 | 100 | 
8 | Cc1nn(C)c(Cl)c1C(=O)Nc1ccccc1CSc1ccccc1 [Example 39] | 70 | 80 | 90 | 90 | 100 | 100 | 
9 | Cc1ccc(OCc2ccccc2NC(=O)c2cn(C)nc2C(F)F)cc1 [Example 119] | 100 | 100 | 100 | 100 | 100 | 100 | 
10 | CC1=C(C(=O)Nc2ccccc2COc2ccccc2C)SCCO1 [Example 144] | 70 | 90 | 100 | 90 | 100 | 100 | 
11 | Cc1nn(C)c(Cl)c1C(=O)Nc1ccccc1CSc1ccc(Cl)cc1 [Example 84] | 80 | 80 | 100 | 90 | 100 | 100 | 
12 | Cc1nc(C(F)(F)F)c(C(=O)Nc2ccccc2CSc2ccccc2)s1 [Example 40] | 50 | 60 | 70 | 40 | 70 | 90 | 
13 | Cc1nc(C(F)(F)F)c(C(=O)Nc2ccccc2C=Cc2ccccc2)s1 [Example 5] | 70 | 80 | 100 | 70 | 90 | 100 | 
14 | CC1=C(C(=O)Nc2ccccc2COc2ccc(C)cc2)SCCO1 [Example 143] | 80 | 90 | 100 | 100 | 100 | 100 | 
15 | Cc1cccc(OCc2ccccc2NC(=O)c2cn(C)nc2C(F)F)c1 [Example 139] | 100 | 100 | 100 | 100 | 100 | 100 | 
16 | Cc1ccc(OCc2ccccc2NC(=O)c2cn(C)nc2C(F)(F)F)c(C)c1 [Example 52] | 80 | 90 | 100 | 90 | 100 | 100 | 
17 | Cc1nn(C)cc1C(=O)Nc1ccccc1C=Cc1ccccc1 [Example 18] | 70 | 100 | 100 | 70 | 100 | 100 | 
18 | CC1=C(C(=O)Nc2ccccc2COc2cccc(C)c2)SCCO1 [Example 142] | 70 | 90 | 100 | 90 | 90 | 100 | 
